The nature of data set [1]: Cmax in male Sprague-Dawley rat at 10 mg/kg, iv measured upto 24 hrs. The class given is ADME, organism-based. The conditions noted are these: in vivo.
Data set [2] is described as follows: Half life in male Sprague-Dawley rat at 10 mg/kg, iv measured upto 24 hrs. The conditions noted are these: in vivo. The class given is ADME, organism-based.
The nature of data set [3]: Tmax in male Sprague-Dawley rat at 10 mg/kg, iv measured upto 24 hrs. In kind it is ADME, organism-based. Particulars: in vivo.
A short description of data set [4]: AUC (0 to 24 hrs) in male Sprague-Dawley rat at 10 mg/kg, iv measured upto 24 hrs. In kind it is ADME, organism-based. Particulars: in vivo.
Data set [5] in a line: Clearance in male Sprague-Dawley rat at 10 mg/kg, iv measured upto 24 hrs. The class given is ADME, organism-based. The conditions noted are these: in vivo.
Data set [6] is described as follows: Cmax in male Sprague-Dawley rat at 20 mg/kg, po measured upto 24 hrs. The class given is ADME, organism-based. The conditions noted are these: in vivo.
The nature of data set [7]: Half life in male Sprague-Dawley rat at 20 mg/kg, po measured upto 24 hrs. The class given is ADME, organism-based. The conditions noted are these: in vivo.
The nature of data set [8]: Tmax in male Sprague-Dawley rat at 20 mg/kg, po measured upto 24 hrs. The class given is ADME, organism-based. The conditions noted are these: in vivo.
A short description of data set [9]: AUC (0 to 24 hrs) in male Sprague-Dawley rat at 20 mg/kg, po measured upto 24 hrs. The conditions noted are these: in vivo. The class given is ADME, organism-based.
The nature of data set [10]: Clearance in male Sprague-Dawley rat at 20 mg/kg, po measured upto 24 hrs. In kind it is ADME, organism-based. Particulars: in vivo.
A short description of data set [11]: Oral bioavailability in male Sprague-Dawley rat at 20 mg/kg measured upto 24 hrs. In kind it is ADME, organism-based. The conditions noted are these: in vivo.
In data set [12] the test system is RAW264.7. As to the kind of experiment: Anti-inflammatory activity in LPS-induced ALI in mouse RAW264.7 cells assessed as decrease in intracellular ROS level by DCFH-DA staining based flow cytometry analysis (reference value: 91.2%). The class given is functional. Also on record: scale not given: the % may be the effect or the level left.
Data set [13] deals with RAW264.7. The experiment in a line: Induction of pyroptosis in LPS induced mouse RAW264.7 cells by caspase-1/PI staining based flow cytometry (reference value: 49.6 %). In kind it is functional.
Data set [14] concerns the target P2Y purinoceptor 1 (Homo sapiens, UniProt P47900). The experiment in a line: Antagonist activity at human P2Y1R stably expressed in HEK293 cells assessed as inhibition of ADP-induced IP3 accumulation preincubated with compound for 30 mins followed by ADP addition by ELISA method. In kind it is functional, cell-based.
For data set [15], the target named is P2Y purinoceptor 2 (Homo sapiens, UniProt P41231). As to the kind of experiment: Antagonist activity at human P2Y2R stably expressed in HEK293 cells assessed as inhibition of UTP-induced IP3 accumulation preincubated with compound for 30 mins followed by UTP addition by ELISA method. In kind it is functional, cell-based.
Data set [16] addresses P2Y purinoceptor 4 (Homo sapiens, UniProt P51582). As to the kind of experiment: Antagonist activity at human P2Y4R stably expressed in HEK293 cells assessed as inhibition of UTP-induced IP3 accumulation preincubated with compound for 30 mins followed by UTP addition by ELISA. In kind it is functional, cell-based.
Data set [17] concerns the target P2Y purinoceptor 6 (Homo sapiens, UniProt Q15077). As to the kind of experiment: Antagonist activity at human P2Y6R stably expressed in HEK293 cells assessed as inhibition of UDP-induced IP3 accumulation preincubated with compound for 30 mins followed by UDP addition by ELISA. In kind it is functional, cell-based.
Data set [18] has as its target P2Y purinoceptor 12 (Homo sapiens, UniProt Q9H244). As to the kind of experiment: Antagonist activity at human P2Y12R stably expressed in HEK293 cells assessed as inhibition of 2-MeSADP-induced IP3 accumulation preincubated with compound for 30 mins followed by 2-MeSADP addition by ELISA. The class given is functional, cell-based.
The target of data set [19] is T1, Cytochrome P450 1A2 (Homo sapiens, UniProt P05177).
T1 sequence (P05177 whole entry): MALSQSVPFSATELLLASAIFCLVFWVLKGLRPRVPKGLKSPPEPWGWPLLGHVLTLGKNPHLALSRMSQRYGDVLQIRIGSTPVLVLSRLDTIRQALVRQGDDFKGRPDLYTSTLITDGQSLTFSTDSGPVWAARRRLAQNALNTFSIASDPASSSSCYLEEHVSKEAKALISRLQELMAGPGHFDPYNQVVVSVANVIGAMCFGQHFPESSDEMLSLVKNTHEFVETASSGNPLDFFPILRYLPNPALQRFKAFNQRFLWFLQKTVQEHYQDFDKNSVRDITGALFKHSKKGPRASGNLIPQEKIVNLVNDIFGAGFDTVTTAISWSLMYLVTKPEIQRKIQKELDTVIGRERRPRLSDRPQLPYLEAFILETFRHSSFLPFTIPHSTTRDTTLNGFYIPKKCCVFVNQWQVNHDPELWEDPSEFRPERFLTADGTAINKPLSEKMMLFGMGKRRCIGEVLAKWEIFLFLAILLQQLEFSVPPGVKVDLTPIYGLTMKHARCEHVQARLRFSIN
The experiment in a line: Inhibition of CYP1A2 in human liver microsomes using phenacetin as substrate measured after 30 mins by LC/MS analysis. In kind it is ADME, Microsome.

Data set [20] concerns the target Cytochrome P450 2C9 (Homo sapiens, UniProt P11712). The experiment in a line: Inhibition of CYP2C9 in human liver microsomes using diclofenac as substrate measured after 30 mins by LC/MS analysis. In kind it is ADME, Microsome.
In data set [21] the target is Cytochrome P450 2C19 (Homo sapiens, UniProt P33261). The experiment in a line: Inhibition of CYP2C19 in human liver microsomes using mephenytoin as substrate measured after 30 mins by LC/MS analysis. The class given is ADME, Microsome.
The target of data set [22] is Cytochrome P450 2D6 (Homo sapiens, UniProt P10635). As to the kind of experiment: Inhibition of CYP2D6 in human liver microsomes using dextromethorphan as substrate measured after 30 mins by LC/MS analysis. The class given is ADME, Microsome.
Data set [23] concerns the target Cytochrome P450 3A4 (Homo sapiens, UniProt P08684). The experiment in a line: Inhibition of CYP3A4 in human liver microsomes using midazolam as substrate measured after 30 mins by LC/MS analysis. In kind it is ADME, Microsome.
Data set [24] is described as follows: Stability of the compound in stimulated intestinal fluid assessed as half life. In kind it is physicochemical. Particulars: simulated intestinal fluid.
Data set [25] in a line: Stability of the compound in stimulated gastric fluid assessed as half life. Particulars: simulated gastric fluid. In kind it is physicochemical.
Data set [26] is described as follows: Metabolic stability in human liver microsomes assessed as intrinsic clearance at […] measured upto 45 mins in presence of NADPH by LC-MS analysis. The class given is ADME, Microsome. Particulars: read-out: CLH.
Data set [27] in a line: Metabolic stability in human liver microsomes assessed as half life at […] measured upto 45 mins in presence of NADPH by LC-MS analysis. In kind it is ADME, Microsome.
For data set [28], the system named is RAW264.7. The experiment in a line: Cytotoxicity in mouse Raw264.7 cells at <80 uM incubated for 24 hrs by SRB method. The class given is toxicity, cell-based. Particulars: raw264.7, 24 h.

The structures appear in SMILES notation. Some results are limits rather than exact numbers.

Sequence of P2Y purinoceptor 2 (P41231 whole entry): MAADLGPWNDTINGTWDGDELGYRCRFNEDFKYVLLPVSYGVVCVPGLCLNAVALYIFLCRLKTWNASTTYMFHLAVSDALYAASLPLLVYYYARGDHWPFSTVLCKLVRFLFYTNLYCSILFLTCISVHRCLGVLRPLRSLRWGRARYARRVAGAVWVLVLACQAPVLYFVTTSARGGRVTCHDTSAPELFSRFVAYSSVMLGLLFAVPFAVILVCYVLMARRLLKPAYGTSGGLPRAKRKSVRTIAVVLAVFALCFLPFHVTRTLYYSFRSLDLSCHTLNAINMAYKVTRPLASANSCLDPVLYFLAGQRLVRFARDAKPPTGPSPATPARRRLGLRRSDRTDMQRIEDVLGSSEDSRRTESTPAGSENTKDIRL
Sequence of P2Y purinoceptor 1 (P47900 whole entry): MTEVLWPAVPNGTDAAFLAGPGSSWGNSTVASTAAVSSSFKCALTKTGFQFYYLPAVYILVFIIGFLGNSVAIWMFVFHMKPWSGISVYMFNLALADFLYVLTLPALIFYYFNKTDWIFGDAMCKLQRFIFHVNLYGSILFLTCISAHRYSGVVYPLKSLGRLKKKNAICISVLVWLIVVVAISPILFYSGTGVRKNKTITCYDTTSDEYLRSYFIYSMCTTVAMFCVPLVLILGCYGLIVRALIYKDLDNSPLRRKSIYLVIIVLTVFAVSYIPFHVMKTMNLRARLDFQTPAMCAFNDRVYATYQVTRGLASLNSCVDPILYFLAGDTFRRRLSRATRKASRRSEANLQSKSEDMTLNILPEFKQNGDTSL
Sequence of Cytochrome P450 2C19 (P33261 whole entry): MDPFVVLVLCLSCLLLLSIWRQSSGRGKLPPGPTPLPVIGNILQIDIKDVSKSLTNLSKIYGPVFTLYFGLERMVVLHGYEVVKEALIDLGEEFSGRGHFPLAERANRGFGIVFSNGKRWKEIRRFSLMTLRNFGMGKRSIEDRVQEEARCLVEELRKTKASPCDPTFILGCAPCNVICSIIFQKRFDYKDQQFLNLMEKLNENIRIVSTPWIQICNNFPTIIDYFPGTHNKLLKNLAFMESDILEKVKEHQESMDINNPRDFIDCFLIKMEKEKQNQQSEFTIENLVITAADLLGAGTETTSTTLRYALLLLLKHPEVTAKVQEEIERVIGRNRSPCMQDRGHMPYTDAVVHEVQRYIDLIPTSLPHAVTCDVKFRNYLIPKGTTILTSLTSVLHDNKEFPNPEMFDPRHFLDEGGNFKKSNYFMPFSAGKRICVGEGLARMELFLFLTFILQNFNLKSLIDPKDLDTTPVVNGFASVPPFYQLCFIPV
Sequence of Cytochrome P450 2D6 (P10635 whole entry): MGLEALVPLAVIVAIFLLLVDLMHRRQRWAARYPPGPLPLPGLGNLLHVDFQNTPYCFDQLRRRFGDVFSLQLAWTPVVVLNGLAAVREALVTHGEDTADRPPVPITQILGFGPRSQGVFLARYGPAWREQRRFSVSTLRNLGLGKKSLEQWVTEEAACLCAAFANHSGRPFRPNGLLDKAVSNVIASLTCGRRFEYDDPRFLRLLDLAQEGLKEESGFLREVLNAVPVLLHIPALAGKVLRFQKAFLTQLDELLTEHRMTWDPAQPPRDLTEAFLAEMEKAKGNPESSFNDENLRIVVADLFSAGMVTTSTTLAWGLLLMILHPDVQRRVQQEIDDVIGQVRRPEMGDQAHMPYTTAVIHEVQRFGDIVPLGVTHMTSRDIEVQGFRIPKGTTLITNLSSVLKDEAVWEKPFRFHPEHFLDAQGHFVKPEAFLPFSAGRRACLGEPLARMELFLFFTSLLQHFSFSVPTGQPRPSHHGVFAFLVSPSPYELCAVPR
Sequence of Cytochrome P450 3A4 (P08684 whole entry): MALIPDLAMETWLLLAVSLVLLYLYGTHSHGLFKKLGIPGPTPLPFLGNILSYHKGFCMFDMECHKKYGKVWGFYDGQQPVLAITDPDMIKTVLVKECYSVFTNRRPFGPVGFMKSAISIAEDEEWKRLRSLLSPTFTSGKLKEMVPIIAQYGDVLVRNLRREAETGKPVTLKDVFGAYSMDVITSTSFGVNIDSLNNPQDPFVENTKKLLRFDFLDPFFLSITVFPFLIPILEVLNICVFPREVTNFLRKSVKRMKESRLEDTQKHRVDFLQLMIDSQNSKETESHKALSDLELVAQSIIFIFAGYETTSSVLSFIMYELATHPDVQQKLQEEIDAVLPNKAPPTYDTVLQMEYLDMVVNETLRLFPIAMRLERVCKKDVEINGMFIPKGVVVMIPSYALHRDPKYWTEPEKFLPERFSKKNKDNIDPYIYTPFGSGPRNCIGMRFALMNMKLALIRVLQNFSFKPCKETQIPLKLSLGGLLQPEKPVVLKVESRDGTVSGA
Sequence of Cytochrome P450 2C9 (P11712 whole entry): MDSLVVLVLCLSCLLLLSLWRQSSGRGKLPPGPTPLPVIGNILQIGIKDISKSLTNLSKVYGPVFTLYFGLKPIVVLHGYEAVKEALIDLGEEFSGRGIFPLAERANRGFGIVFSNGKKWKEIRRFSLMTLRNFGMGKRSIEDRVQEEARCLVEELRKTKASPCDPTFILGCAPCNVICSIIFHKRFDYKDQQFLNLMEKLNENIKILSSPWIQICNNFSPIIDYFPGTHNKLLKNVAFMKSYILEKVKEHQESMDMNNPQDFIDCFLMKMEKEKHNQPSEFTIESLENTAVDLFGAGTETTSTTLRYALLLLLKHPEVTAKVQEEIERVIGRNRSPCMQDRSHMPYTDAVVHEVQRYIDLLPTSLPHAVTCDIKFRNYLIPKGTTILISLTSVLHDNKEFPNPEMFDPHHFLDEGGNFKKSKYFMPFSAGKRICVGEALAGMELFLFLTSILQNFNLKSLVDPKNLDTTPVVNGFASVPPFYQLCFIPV
Sequence of P2Y purinoceptor 6 (Q15077 whole entry): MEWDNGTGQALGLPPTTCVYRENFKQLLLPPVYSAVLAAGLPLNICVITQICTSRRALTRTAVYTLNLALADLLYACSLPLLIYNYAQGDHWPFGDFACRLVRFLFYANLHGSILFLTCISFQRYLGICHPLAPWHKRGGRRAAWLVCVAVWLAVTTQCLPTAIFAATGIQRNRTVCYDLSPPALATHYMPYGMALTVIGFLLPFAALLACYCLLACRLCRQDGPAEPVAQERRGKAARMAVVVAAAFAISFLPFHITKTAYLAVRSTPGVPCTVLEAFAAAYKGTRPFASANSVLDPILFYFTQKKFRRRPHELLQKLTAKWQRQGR
Sequence of P2Y purinoceptor 4 (P51582 whole entry): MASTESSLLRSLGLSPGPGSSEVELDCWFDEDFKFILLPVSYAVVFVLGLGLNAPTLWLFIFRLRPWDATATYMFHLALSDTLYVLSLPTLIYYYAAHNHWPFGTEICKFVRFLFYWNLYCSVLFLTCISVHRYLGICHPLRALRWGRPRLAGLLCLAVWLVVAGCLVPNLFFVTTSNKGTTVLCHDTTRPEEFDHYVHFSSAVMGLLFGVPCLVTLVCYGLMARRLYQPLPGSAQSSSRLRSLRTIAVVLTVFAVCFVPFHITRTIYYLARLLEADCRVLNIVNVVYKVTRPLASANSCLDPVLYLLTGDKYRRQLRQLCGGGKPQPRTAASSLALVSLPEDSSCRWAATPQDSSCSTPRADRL
Sequence of P2Y purinoceptor 12 (Q9H244 whole entry): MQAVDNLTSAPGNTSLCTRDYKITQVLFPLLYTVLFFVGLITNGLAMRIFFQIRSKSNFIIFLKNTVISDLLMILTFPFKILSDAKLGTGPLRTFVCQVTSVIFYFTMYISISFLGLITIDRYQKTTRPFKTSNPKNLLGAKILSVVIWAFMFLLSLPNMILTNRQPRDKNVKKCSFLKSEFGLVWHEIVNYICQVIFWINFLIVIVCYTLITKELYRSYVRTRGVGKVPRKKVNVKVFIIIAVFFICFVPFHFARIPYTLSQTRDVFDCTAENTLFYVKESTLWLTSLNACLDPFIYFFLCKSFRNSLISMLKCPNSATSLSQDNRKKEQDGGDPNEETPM

As for `O=C(O)c1cc(-c2ccc(C3CCNCC3)cc2)c2ccc(-c3ccc(C(F)(F)F)cc3)cc2c1` [PPTN], the Cmax in [1] (iv, 10 mg/kg, 24 h) is 1.024 µg/mL; in data set [6] it was 1.54 µg/mL. Moreover, the t1/2 in data set [2] (iv, 10 mg/kg, 24 h) worked out at 12 min. Moreover, the Tmax was 8 min in data set [3] (iv, 10 mg/kg, 24 h) and 17 min in data set [8]. Besides, the AUC in data set [4] (iv, 10 mg/kg, 24 h) stood at 2.411 µg·h/mL; in [9] (po, 20 mg/kg, 24 h), 3.001 µg·h/mL. Besides, in data set [5], the clearance was 0.69 L/h/kg. Besides, the half-life in [7] is 24 min. In data set [10], the CL/F is 1.33 L/h/kg. Besides, in [11] (po, 20 mg/kg, 24 h), the F was determined as 12%. In addition, the Activity in [12] is on record as 58.7%; in [13], 8.93%.
`COC(=O)c1cc(NC(=O)Cc2ccc(C)cc2)cc(-c2nc3ccccc3[nH]2)c1`: the IC50 is more than 100 µM in [14]; more than 100 µM in data set [15]; more than 100 µM in [16]; 47.6 µM in [17]; more than 100 µM in [18]; more than 30 µM in data set [19]. For the same molecule, the IC50 in data set [20], in data set [21], in data set [22] and in data set [23] was more than 30 µM in each case. In addition, the half-life in data set [24] is more than 300 min; in data set [25], more than 50 h; in data set [27], 354 min; in [2] (male, Sprague-Dawley), 48 min; in data set [7] it was 96 min. The microsomal CLint in data set [26] was 25.6 µL/min/mg. For the same molecule, the Cmax in [1] (male, Sprague-Dawley, read-out: Cmax) was determined as 0.964 µg/mL; in [6], 1.94 µg/mL. For the same molecule, the Tmax in data set [3] (male, Sprague-Dawley, read-out: Tmax (converted)) is 19 min; in data set [8], 26 min. Further, the AUC(0-t) at 24 h in [4] (male, Sprague-Dawley) turned out to be 0.895 µg·h/mL; in [9] (male, Sprague-Dawley), 1.12 µg·h/mL. Also, in [5], the clearance was 1.57 L/h/kg. The molecule also yielded a CL/F in data set [10] of 2.79 L/h/kg. In data set [11] (male, Sprague-Dawley), this molecule showed a bioavailability of 38%. In addition, the Activity entry in data set [28] is “Non-toxic”.

The record behind these values is ChEMBL document CHEMBL6096734, “Design, Synthesis and Anti-Inflammatory Evaluation of 3-Substituted 5-Amidobenzoate Derivatives as Novel P2Y14 Receptor Antagonists via Structure-Guided Molecular Hybridization” (J Med Chem, 2025).
